From patent US20240034742A1, “DOSING REGIMENS FOR CYCLIN-DEPENDENT KINASE 7 (CDK7) INHIBITORS” (Syros Pharmaceuticals, Inc., priority 2020, published 2024)
pEC50: −log10 of the molar value.

Legend:
[1] = tested on: palbociclib and fulvestrant double-resistant ER+BC PDX model (ST941); experiment: Tumor growth inhibition in palbociclib and fulvestrant double-resistant ER+BC PDX model ST941; assay type: in vivo, mice; details: last day of 28 days dosing, Compound 101 6 mg/kg QD PO, fulvestrant 2.5 mg/kg weekly SC, palbociclib 50 mpk QD PO
Experimental: Tumor growth inhibition was evaluated in estrogen receptor-positive breast cancer (ER-BC) PDX models selected in vivo for resistance to the CDK4/6 inhibitor palbociclib (ST1799, […]) or resistance to both palbociclib and fulvestrant (ST941, n=1), Dosing was initiated when tumors were 100-200 mm^3.

[2] = tested on: PDX models with oncogenic alterations in the RB pathway and MAPK pathway; experiment: Anti-tumor activity in PDX models with RB or MAPK pathway alterations; assay type: in vivo; details: well-tolerated doses; models from SCLC, TNBC, HGSOC, CRC, PDAC, NSCLC patients
[3] = tested on: ST390 (modeling pancreatic ductal adenocarcinoma (PDAC)); experiment: Tumor growth inhibition in PDAC PDX model ST390; details: 6 mg/kg QD PO, over the time examined (~28 days)
Experimental: (§1) In the TNBC, SCLC, and HGSOC models, tumor volume was measured during the treatment period and for an additional 21 days after treatment ceased. […] The same calculations were used for end of study (day 42).

[4] = tested on: patients with advanced solid tumors; experiment: Phase 1, first-in-human dose escalation study
Experimental: We focused on safety, tolerability, PK, and PD (as assessed by a PD gene expression marker, POLR2A mRNA) in a 28-day single agent continuous daily dosing regimen and a 3-week-on, I-week-off combination regimen with fulvestrant.
Safety and tolerability, including cycle-1 dose-limiting toxicities (DLTs) were evaluated. Dose-limiting toxicities were graded using the National Cancer Institute Common Toxicity Criteria for Adverse Events (NCI-CTCAE) version 5.0. Serial plasma PK and PD in peripheral blood mononuclear cells (PBMCs) were obtained on days 1 and 15 in cycle 1. […] Tumor responses were assessed per RECIST version 1.1.

[5] = tested on: 12 PDX models representing SCLC, TNBC and HGSOC; experiment: Tumor growth inhibition in TNBC, HGSOC and SCLC PDX models
Experimental: as §1
Dosing was initiated when tumors were 150-300 mm^3. […] TGI was calculated on the last day of dosing using the formula: TGI=(Vc1−Vt1)/(Vc0−Vt0), where Vc1 and Vt1 are the mean volumes of control and treated groups at the time of tumor extraction, while Vc0 and Vt0 are the same groups at the start of dosing.

HCC70 cell line = experiment: Inhibition of cell proliferation (CyQUANT Direct Cell Proliferation Assay); assay type: cell-based; details: Homo sapiens, 72-hour proliferation assay
Experimental: The HCC70 cell line was derived from human TNBC, and we tested representative compounds of the invention, at different concentrations (from […]; 0.5 log serial dilutions), for their ability to inhibit the proliferation of those cells. More specifically, we tested the same compounds tested above for CDK7 selectivity (the structures of which are shown in FIG. 1), and we used the known CDK inhibitors dinaciclib (or N-((1S,3R)-3-((5-chloro-4-(1H-indol-3-yl) pyrimidin-2-yl)amino)cyclohexyl)-5-((E)-4-(dimethylamino)but-2-enamido)picolinamide) and triptolide as positive controls. The cells were grown in ATCC-formulated RPMI-1640 medium (ATCC 30-2001) supplemented with 10% fetal bovine serum (FBS), at 37° C. in a humidified chamber in the presence of 5% CO2. We conducted proliferation assays over a 72-hour time period using a CyQUANT® Direct Cell Proliferation Assay (Life Technologies, Chicago, IL USA) according to the manufacturer's directions and utilizing the reagents supplied with the kit.

[6] = single agent and in combination with fulvestrant

SMILES: CC(=O)c1c(C)c2cnc(Nc3ccc(N4CCNCC4)cn3)nc2n(C2CCCC2)c1=O [palbociclib]
- Tumor growth inhibition (TGI) [1]: no activity

SMILES: C[C@]12CC[C@@H]3c4ccc(O)cc4C[C@@H](CCCCCCCCC[S+]([O-])CCCC(F)(F)C(F)(F)F)[C@H]3[C@@H]1CC[C@@H]2O (some centres unmarked) [fulvestrant]
- Tumor growth inhibition (TGI) [1]: no activity

SMILES: CC1(C)CC[C@H](Nc2ncc(C(F)(F)F)c(-c3c[nH]c4c(P(C)(C)=O)c(C#N)ccc34)n2)CN1 [Compound 101, (S)-7-(dimethylphosphoryl)-3-(2-((6,6-dimethylpiperidin-3-yl)amino)-5-(trifluoromethyl)pyrimidin-4-yl)-1H-indole-6-carbonitrile]
- anti-tumor activity [2]: robust anti-tumor activity
- Tumor growth inhibition (TGI) [3]: 100%
- pharmacodynamics: POLR2A mRNA in PBMCs and CDK7 occupancy ([4]; 3 mg daily): induced POLR2A elevations associated with regressions in preclinical models and target levels of CDK7 occupancy in patients
- dose-limiting events ([4]; cohort receiving 4 mg doses, continuous daily (Grade 3 fatigue; abdominal pain)): two
- dose-limiting events ([4]; cohort receiving 5 mg doses, continuous daily (Grade 3 nausea; thrombocytopenia)): two
- patients who developed an SAE (all causality) ([4]; four of 13 patients): 31%
- grade of the majority of reported adverse events ([4]; in vivo): low grade
- accumulation with repeated dosing [4, 6]: minimal accumulation
- dose proportionality of PK [4, 6]: approximately dose proportional PK
- interpatient variability of PK [4, 6]: moderate to high interpatient variability
- steady state half-life [4, 6]: compatible with once daily dosing
- best response (RECIST 1.1) ([4]; single agent, 3 mg daily, two patients (HR+ breast cancer, colorectal cancer)): stable disease
- best response (RECIST 1.1) ([4]; single agent, 5 mg daily, one patient, esophageal cancer): stable disease
- MTD ([4]; single agent, oral, continuous daily dosing cohorts): 3 mg
- response (RECIST 1.1) ([4]; single agent, two patients with ovarian cancer, 1 mg and 3 mg daily): progressive disease
- TGI in TNBC (BR5010), SCLC (LU5178) and HGSOC (OV15398) PDX models ([5]; 10 mg/kg QD or 5 mg/kg BID (TNBC), 3 mg/kg BID (SCLC, HGSOC), PO, 21 days, plus 21 days observation): deep and sustained TGI, including regressions
- TGI at the end of the 21-day dosing period in all models ([5]; 12 PDX models, 6 or 10 mg/kg QD or 3 or 5 mg/kg BID PO): at least 50%
- TGI in the subset of models (58%, 7/12) with deep and sustained responses ([5]; TGI or regression, no tumor regrowth for 21 days after treatment discontinuation): > 95%
- tolerability: body weight ([5]; all once-daily doses tested, tumor-bearing mice): no evident body weight loss
- MTD ([5]; tumor-bearing mice): above 10 mg/kg once daily
- pEC50 (HCC70 cell line): 8.44
